Numbers after ± are expanded uncertainties.
Test: xn = mol fraction of the nth substance listed
Details: Liquid, Bellows volumetry

In the case of C=C [ethene] + Cc1ccccc1, the mass density (421 K, 37600 kPa, x1 = 0.3067) is reported as 688.2 ± 16 kg/m3, the mass density (421 K, 44700 kPa, x1 = 0.3067) is reported as 698 ± 17 kg/m3 and the mass density (421 K, 51000 kPa, x1 = 0.3067) is reported as 705.4 ± 17 kg/m3. The mass density (421 K, 58300 kPa, x1 = 0.3067) was 714.6 ± 17 kg/m3, the mass density (421 K, 63100 kPa, x1 = 0.3067) was 720.1 ± 17 kg/m3 and the mass density (421 K, 66800 kPa, x1 = 0.3067) was 724 ± 17 kg/m3. The mass density (422.2 K, 2530 kPa, x1 = 0.1194) was 681.2 ± 16 kg/m3, the mass density (422.2 K, 2830 kPa, x1 = 0.1194) was 682.2 ± 16 kg/m3 and the mass density (422.2 K, 3620 kPa, x1 = 0.1194) was 684.1 ± 16 kg/m3. For the same compound, the mass density (422.2 K, 5330 kPa, x1 = 0.1194) was 688.4 ± 16 kg/m3, the mass density (422.2 K, 7040 kPa, x1 = 0.1194) was 692.2 ± 17 kg/m3 and the mass density (422.2 K, 7110 kPa, x1 = 0.1194) was 692.2 ± 17 kg/m3. It also gave a mass density (422.2 K, 10420 kPa, x1 = 0.1194) of 699.6 ± 17 kg/m3, a mass density (422.2 K, 13400 kPa, x1 = 0.1194) of 705.1 ± 17 kg/m3 and a mass density (422.2 K, 17400 kPa, x1 = 0.1194) of 712.2 ± 17 kg/m3. The mass density (422.2 K, 20480 kPa, x1 = 0.1194) was 716.9 ± 17 kg/m3, the mass density (422.2 K, 22980 kPa, x1 = 0.1194) was 720.6 ± 17 kg/m3 and the mass density (422.2 K, 24010 kPa, x1 = 0.1194) was 722.1 ± 17 kg/m3. For the same compound, the mass density (422.2 K, 30990 kPa, x1 = 0.1194) was 731.2 ± 18 kg/m3, the mass density (422.2 K, 37420 kPa, x1 = 0.1194) was 739.4 ± 18 kg/m3 and the mass density (422.2 K, 44550 kPa, x1 = 0.1194) was 747.3 ± 18 kg/m3. It also gave a mass density (422.2 K, 51320 kPa, x1 = 0.1194) of 755.3 ± 18 kg/m3, a mass density (422.2 K, 58240 kPa, x1 = 0.1194) of 762.3 ± 18 kg/m3 and a mass density (422.2 K, 63240 kPa, x1 = 0.1194) of 767.6 ± 18 kg/m3. It also gave a mass density (422.2 K, 67210 kPa, x1 = 0.1194) of 771.2 ± 18 kg/m3, a mass density (470.9 K, 3430 kPa, x1 = 0.1194) of 616.2 ± 15 kg/m3 and a mass density (470.9 K, 3560 kPa, x1 = 0.1194) of 617.7 ± 15 kg/m3. It also gave a mass density (470.9 K, 4240 kPa, x1 = 0.1194) of 620.4 ± 15 kg/m3, a mass density (470.9 K, 4990 kPa, x1 = 0.1194) of 623.6 ± 15 kg/m3 and a mass density (470.9 K, 5950 kPa, x1 = 0.1194) of 627.5 ± 15 kg/m3. For the same compound, the mass density (470.9 K, 7310 kPa, x1 = 0.1194) was 631.9 ± 15 kg/m3, the mass density (470.9 K, 10590 kPa, x1 = 0.1194) was 642.6 ± 15 kg/m3 and the mass density (470.9 K, 14000 kPa, x1 = 0.1194) was 652.4 ± 16 kg/m3. The mass density (470.9 K, 16940 kPa, x1 = 0.1194) was 659.8 ± 16 kg/m3, the mass density (470.9 K, 24260 kPa, x1 = 0.1194) was 676.6 ± 16 kg/m3 and the mass density (470.9 K, 31240 kPa, x1 = 0.1194) was 690.3 ± 17 kg/m3. The mass density (470.9 K, 37460 kPa, x1 = 0.1194) was 701.1 ± 17 kg/m3, the mass density (470.9 K, 41500 kPa, x1 = 0.1194) was 707.1 ± 17 kg/m3 and the mass density (470.9 K, 44850 kPa, x1 = 0.1194) was 712.2 ± 17 kg/m3. It also gave a mass density (470.9 K, 51420 kPa, x1 = 0.1194) of 720.6 ± 17 kg/m3, a mass density (470.9 K, 58440 kPa, x1 = 0.1194) of 729.1 ± 18 kg/m3 and a mass density (470.9 K, 62650 kPa, x1 = 0.1194) of 733.4 ± 18 kg/m3. It also gave a mass density (470.9 K, 67380 kPa, x1 = 0.1194) of 738.3 ± 18 kg/m3, a mass density (475.1 K, 7800 kPa, x1 = 0.3067) of 540.4 ± 13 kg/m3 and a mass density (475.1 K, 8600 kPa, x1 = 0.3067) of 545.2 ± 13 kg/m3. For the same compound, the mass density (475.1 K, 9400 kPa, x1 = 0.3067) was 551 ± 13 kg/m3, the mass density (475.1 K, 10600 kPa, x1 = 0.3067) was 557.2 ± 13 kg/m3 and the mass density (475.1 K, 12100 kPa, x1 = 0.3067) was 565.4 ± 14 kg/m3. The mass density (475.1 K, 14000 kPa, x1 = 0.3067) was 572.7 ± 14 kg/m3, the mass density (475.1 K, 17400 kPa, x1 = 0.3067) was 586 ± 14 kg/m3 and the mass density (475.1 K, 20700 kPa, x1 = 0.3067) was 598.4 ± 14 kg/m3. The mass density (475.1 K, 24300 kPa, x1 = 0.3067) was 609 ± 15 kg/m3, the mass density (475.1 K, 30800 kPa, x1 = 0.3067) was 625.7 ± 15 kg/m3 and the mass density (475.1 K, 37500 kPa, x1 = 0.3067) was 640.8 ± 15 kg/m3. It also gave a mass density (475.1 K, 44500 kPa, x1 = 0.3067) of 654.3 ± 16 kg/m3, a mass density (475.1 K, 51800 kPa, x1 = 0.3067) of 666.5 ± 16 kg/m3 and a mass density (475.1 K, 58100 kPa, x1 = 0.3067) of 676.2 ± 16 kg/m3. It also gave a mass density (475.1 K, 63100 kPa, x1 = 0.3067) of 682.6 ± 16 kg/m3, a mass density (475.1 K, 67400 kPa, x1 = 0.3067) of 687.7 ± 16 kg/m3 and a mass density (519 K, 4500 kPa, x1 = 0.1194) of 541.1 ± 13 kg/m3. It also gave a mass density (519 K, 5100 kPa, x1 = 0.1194) of 547.1 ± 13 kg/m3, a mass density (519 K, 6120 kPa, x1 = 0.1194) of 555.5 ± 13 kg/m3 and a mass density (519 K, 7100 kPa, x1 = 0.1194) of 562.7 ± 14 kg/m3. For the same compound, the mass density (519 K, 8870 kPa, x1 = 0.1194) was 573.5 ± 14 kg/m3, the mass density (519 K, 10630 kPa, x1 = 0.1194) was 583 ± 14 kg/m3 and the mass density (519 K, 13940 kPa, x1 = 0.1194) was 597.1 ± 14 kg/m3. It also gave a mass density (519 K, 14140 kPa, x1 = 0.1194) of 598.2 ± 14 kg/m3, a mass density (519 K, 17480 kPa, x1 = 0.1194) of 610.1 ± 15 kg/m3 and a mass density (519 K, 24180 kPa, x1 = 0.1194) of 630.3 ± 15 kg/m3. For the same compound, the mass density (519 K, 31210 kPa, x1 = 0.1194) was 647.7 ± 16 kg/m3, the mass density (519 K, 38050 kPa, x1 = 0.1194) was 662.1 ± 16 kg/m3 and the mass density (519 K, 44340 kPa, x1 = 0.1194) was 674.3 ± 16 kg/m3. It also gave a mass density (519 K, 51320 kPa, x1 = 0.1194) of 686.5 ± 16 kg/m3, a mass density (519 K, 51390 kPa, x1 = 0.1194) of 686.5 ± 16 kg/m3 and a mass density (519 K, 58160 kPa, x1 = 0.1194) of 697.1 ± 17 kg/m3. For the same compound, the mass density (519 K, 63090 kPa, x1 = 0.1194) was 704.6 ± 17 kg/m3, the mass density (519 K, 66990 kPa, x1 = 0.1194) was 709.7 ± 17 kg/m3 and the mass density (519.3 K, 8400 kPa, x1 = 0.3067) was 448 ± 11 kg/m3. It also gave a mass density (519.3 K, 8600 kPa, x1 = 0.3067) of 455.1 ± 11 kg/m3, a mass density (519.3 K, 9400 kPa, x1 = 0.3067) of 472 ± 11 kg/m3 and a mass density (519.3 K, 10500 kPa, x1 = 0.3067) of 482.9 ± 12 kg/m3. For the same compound, the mass density (519.3 K, 12000 kPa, x1 = 0.3067) was 499.7 ± 12 kg/m3, the mass density (519.3 K, 13800 kPa, x1 = 0.3067) was 513.9 ± 12 kg/m3 and the mass density (519.3 K, 14100 kPa, x1 = 0.3067) was 515.9 ± 12 kg/m3. For the same compound, the mass density (519.3 K, 15900 kPa, x1 = 0.3067) was 525.1 ± 13 kg/m3, the mass density (519.3 K, 17200 kPa, x1 = 0.3067) was 535.5 ± 13 kg/m3 and the mass density (519.3 K, 20900 kPa, x1 = 0.3067) was 553.6 ± 13 kg/m3. For the same compound, the mass density (519.3 K, 24100 kPa, x1 = 0.3067) was 565.7 ± 14 kg/m3, the mass density (519.3 K, 31300 kPa, x1 = 0.3067) was 589.3 ± 14 kg/m3 and the mass density (519.3 K, 37800 kPa, x1 = 0.3067) was 605 ± 14 kg/m3. It also gave a mass density (519.3 K, 44900 kPa, x1 = 0.3067) of 621.2 ± 15 kg/m3, a mass density (519.3 K, 51600 kPa, x1 = 0.3067) of 636.4 ± 15 kg/m3 and a mass density (519.3 K, 58300 kPa, x1 = 0.3067) of 647.5 ± 16 kg/m3. It also gave a mass density (519.3 K, 63100 kPa, x1 = 0.3067) of 656.6 ± 16 kg/m3 and a mass density (519.3 K, 67100 kPa, x1 = 0.3067) of 662.7 ± 16 kg/m3.

— the NIST ThermoML archive (doi:10.1016/j.fluid.2017.06.022)
